Test results taken from the kinase profiling compilation of Christmann-Franck et al. (2016).

Experiments:
Experiment in all cases: radiometric filter-binding kinase assay, Kinase HotSpot
Details in all cases: compound 0.5 µM; ATP 10 µM
ACVRL1 (human) = ACVRL1 (human) (UniProt P37023)
ALK (human) = ALK (human) (UniProt Q9UM73)
CAMK2A (human) = CAMK2A (human) (UniProt Q9UQM7)
CDC42BPB (human) = CDC42BPB (human) (UniProt Q9Y5S2)
CDK4 CCND1 (human) = CDK4 CCND1 (human) (UniProt P24385+P11802)
CHEK1 (human) = CHEK1 (human) (UniProt O14757)
CLK3 (human) = CLK3 (human) (UniProt P49761)
DYRK3 (human) = DYRK3 (human) (UniProt O43781)
EPHA6 (human) = EPHA6 (human) (UniProt Q9UF33)
EPHA8 (human) = EPHA8 (human) (UniProt P29322)
GSG2 (human) = GSG2 (human) (UniProt Q8TF76)
HCK (human) = HCK (human) (UniProt P08631)
IRAK1 (human) = IRAK1 (human) (UniProt P51617)
[1] = molecular target: JAK1 JH1 catalytic (human) (UniProt P23458)
LIMK1 (human) = LIMK1 (human) (UniProt P53667)
MAP3K11 (human) = MAP3K11 (human) (UniProt Q16584)
MAP3K8 (human) = MAP3K8 (human) (UniProt P41279)
MAPK10 (human) = MAPK10 (human) (UniProt P53779)
MAPK13 (human) = MAPK13 (human) (UniProt O15264)
MARK1 (human) = MARK1 (human) (UniProt Q9P0L2)
MERTK (human) = MERTK (human) (UniProt Q12866)
MLTK (human) = MLTK (human) (UniProt Q9NYL2)
MYO3B (human) = MYO3B (human) (UniProt Q8WXR4)
NEK9 (human) = NEK9 (human) (UniProt Q8TD19)
NLK (human) = NLK (human) (UniProt Q9UBE8)
NUAK2 (human) = NUAK2 (human) (UniProt Q9H093)
OXSR1 (human) = OXSR1 (human) (UniProt O95747)
PDGFRA (human) = PDGFRA (human) (UniProt P16234)
PLK2 (human) = PLK2 (human) (UniProt Q9NYY3)
PRKCH (human) = PRKCH (human) (UniProt P24723)
[2] = system: PRKCQ (human), Q04759 [P330L]
ROCK1 (human) = ROCK1 (human) (UniProt Q13464)
RPS6KA4 KD2 (human) = RPS6KA4 KD2 (human) (UniProt O75676)
SIK2 (human) = SIK2 (human) (UniProt Q9H0K1)
SRC (human) = SRC (human) (UniProt P12931)
STK10 (human) = STK10 (human) (UniProt O94804)
STK24 (human) = STK24 (human) (UniProt Q9Y6E0)
TAOK2 (human) = TAOK2 (human) (UniProt Q9UL54)
TGFBR2 (human) = TGFBR2 (human) (UniProt P37173)
TLK2 (human) = TLK2 (human) (UniProt Q86UE8)
WNK3 (human) = WNK3 (human) (UniProt Q9BYP7)

Chain of MAPK13 (human) (O15264 whole entry, looked up): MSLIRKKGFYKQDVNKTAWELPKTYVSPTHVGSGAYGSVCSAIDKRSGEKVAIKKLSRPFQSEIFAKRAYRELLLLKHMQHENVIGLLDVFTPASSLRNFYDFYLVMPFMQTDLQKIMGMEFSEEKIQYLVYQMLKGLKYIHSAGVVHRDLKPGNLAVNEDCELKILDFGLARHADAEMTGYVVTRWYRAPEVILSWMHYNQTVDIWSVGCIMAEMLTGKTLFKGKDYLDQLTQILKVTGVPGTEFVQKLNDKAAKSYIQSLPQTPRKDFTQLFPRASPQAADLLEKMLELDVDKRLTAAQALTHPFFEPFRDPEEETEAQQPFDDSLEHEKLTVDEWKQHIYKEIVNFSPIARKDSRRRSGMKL
Chain of RPS6KA4 KD2 (human) (O75676 whole entry, looked up): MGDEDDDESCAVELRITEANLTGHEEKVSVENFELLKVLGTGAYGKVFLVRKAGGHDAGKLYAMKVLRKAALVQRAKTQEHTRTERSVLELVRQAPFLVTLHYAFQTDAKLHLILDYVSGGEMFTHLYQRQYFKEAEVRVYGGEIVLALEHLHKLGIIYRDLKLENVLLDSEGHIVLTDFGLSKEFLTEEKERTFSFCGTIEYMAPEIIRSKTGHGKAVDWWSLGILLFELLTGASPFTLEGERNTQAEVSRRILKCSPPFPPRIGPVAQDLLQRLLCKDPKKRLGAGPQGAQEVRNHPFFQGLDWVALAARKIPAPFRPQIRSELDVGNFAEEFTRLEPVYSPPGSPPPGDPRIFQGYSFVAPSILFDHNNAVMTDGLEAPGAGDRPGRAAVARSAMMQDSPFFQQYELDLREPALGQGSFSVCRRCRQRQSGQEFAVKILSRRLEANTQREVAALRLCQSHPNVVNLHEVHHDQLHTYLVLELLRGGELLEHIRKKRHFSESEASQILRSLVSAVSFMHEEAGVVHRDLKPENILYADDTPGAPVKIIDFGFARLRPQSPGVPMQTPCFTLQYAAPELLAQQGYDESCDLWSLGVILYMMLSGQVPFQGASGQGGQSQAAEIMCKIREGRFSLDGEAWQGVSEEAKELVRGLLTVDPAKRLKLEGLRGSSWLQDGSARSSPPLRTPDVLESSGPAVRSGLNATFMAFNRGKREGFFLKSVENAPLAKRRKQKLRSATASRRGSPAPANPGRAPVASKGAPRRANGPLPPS
Chain of TLK2 (human) (Q86UE8 whole entry, looked up): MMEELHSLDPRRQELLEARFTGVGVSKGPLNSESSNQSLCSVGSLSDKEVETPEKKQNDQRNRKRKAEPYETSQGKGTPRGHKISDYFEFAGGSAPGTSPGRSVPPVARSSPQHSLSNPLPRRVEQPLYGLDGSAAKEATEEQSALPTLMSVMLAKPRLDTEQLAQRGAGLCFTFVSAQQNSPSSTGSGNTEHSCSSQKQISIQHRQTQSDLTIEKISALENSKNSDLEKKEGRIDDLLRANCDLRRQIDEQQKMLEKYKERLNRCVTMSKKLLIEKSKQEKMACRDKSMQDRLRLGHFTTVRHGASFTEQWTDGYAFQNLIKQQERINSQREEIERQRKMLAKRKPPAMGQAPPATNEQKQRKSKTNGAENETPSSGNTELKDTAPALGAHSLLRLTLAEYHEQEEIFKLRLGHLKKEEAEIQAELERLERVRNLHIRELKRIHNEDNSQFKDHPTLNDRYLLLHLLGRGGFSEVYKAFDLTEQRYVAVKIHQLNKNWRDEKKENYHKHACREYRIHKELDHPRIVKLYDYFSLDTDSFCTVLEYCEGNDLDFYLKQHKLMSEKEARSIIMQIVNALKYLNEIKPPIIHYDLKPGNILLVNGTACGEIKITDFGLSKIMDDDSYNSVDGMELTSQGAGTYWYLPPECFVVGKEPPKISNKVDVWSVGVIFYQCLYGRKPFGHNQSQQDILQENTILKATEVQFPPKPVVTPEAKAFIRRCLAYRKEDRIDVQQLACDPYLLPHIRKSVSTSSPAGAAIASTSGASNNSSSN
Chain of HCK (human) (P08631 whole entry, looked up): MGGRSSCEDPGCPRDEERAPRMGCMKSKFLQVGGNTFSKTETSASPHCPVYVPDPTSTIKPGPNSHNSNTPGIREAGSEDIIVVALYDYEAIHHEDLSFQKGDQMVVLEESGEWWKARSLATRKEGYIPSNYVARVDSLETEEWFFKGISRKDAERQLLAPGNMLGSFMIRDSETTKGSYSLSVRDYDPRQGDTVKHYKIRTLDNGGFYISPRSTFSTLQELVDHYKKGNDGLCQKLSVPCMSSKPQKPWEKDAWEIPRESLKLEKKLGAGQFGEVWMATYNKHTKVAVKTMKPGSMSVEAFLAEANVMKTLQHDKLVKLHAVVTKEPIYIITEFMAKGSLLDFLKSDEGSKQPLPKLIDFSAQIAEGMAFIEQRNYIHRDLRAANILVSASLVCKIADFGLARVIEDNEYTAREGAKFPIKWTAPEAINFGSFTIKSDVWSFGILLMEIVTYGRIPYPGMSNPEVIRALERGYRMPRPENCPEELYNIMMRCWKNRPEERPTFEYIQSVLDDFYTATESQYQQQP
Chain of MAPK10 (human) (P53779 whole entry, looked up): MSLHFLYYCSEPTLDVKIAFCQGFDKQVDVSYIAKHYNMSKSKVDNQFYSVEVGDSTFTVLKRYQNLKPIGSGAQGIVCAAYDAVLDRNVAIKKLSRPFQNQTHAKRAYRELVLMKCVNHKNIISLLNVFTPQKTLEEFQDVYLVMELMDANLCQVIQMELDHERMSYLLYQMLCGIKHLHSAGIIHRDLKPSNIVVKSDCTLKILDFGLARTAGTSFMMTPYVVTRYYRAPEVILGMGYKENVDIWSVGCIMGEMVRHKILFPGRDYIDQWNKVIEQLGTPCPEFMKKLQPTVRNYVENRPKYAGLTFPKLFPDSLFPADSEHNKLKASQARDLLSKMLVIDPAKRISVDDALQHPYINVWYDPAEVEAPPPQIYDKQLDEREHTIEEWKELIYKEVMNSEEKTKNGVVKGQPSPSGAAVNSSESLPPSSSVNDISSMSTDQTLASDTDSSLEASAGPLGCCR
Chain of JAK1 JH1 catalytic (human) (P23458 whole entry, looked up): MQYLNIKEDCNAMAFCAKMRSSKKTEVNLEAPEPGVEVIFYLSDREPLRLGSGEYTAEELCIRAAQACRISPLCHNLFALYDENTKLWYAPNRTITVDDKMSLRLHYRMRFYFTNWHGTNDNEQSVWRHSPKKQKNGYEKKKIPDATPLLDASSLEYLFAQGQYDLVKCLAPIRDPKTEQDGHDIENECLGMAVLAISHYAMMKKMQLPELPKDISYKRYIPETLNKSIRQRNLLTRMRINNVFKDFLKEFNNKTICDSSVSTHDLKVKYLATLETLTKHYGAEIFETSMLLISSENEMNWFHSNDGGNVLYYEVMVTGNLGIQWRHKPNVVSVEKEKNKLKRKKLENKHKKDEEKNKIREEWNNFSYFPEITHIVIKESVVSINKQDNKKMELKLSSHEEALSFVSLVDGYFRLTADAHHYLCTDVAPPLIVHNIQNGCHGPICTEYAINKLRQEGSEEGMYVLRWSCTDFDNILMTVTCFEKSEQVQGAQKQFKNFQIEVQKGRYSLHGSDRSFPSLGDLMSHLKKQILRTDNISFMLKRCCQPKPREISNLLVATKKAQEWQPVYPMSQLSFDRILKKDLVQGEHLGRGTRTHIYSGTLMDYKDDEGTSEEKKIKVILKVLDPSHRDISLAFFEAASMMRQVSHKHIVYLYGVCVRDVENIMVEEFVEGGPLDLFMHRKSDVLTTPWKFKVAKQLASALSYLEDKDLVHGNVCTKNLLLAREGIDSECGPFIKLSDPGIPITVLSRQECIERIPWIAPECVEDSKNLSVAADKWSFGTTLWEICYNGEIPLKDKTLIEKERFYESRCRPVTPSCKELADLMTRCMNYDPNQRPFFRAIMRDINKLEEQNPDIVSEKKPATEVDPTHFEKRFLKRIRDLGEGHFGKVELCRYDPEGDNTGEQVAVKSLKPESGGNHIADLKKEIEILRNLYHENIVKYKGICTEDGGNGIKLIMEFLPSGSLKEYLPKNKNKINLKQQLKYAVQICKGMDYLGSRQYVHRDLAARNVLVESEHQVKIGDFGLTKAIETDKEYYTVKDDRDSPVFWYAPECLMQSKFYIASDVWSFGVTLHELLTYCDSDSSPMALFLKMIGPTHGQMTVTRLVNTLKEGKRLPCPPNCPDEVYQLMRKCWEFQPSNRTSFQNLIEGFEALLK
Chain of EPHA8 (human) (P29322 whole entry, looked up): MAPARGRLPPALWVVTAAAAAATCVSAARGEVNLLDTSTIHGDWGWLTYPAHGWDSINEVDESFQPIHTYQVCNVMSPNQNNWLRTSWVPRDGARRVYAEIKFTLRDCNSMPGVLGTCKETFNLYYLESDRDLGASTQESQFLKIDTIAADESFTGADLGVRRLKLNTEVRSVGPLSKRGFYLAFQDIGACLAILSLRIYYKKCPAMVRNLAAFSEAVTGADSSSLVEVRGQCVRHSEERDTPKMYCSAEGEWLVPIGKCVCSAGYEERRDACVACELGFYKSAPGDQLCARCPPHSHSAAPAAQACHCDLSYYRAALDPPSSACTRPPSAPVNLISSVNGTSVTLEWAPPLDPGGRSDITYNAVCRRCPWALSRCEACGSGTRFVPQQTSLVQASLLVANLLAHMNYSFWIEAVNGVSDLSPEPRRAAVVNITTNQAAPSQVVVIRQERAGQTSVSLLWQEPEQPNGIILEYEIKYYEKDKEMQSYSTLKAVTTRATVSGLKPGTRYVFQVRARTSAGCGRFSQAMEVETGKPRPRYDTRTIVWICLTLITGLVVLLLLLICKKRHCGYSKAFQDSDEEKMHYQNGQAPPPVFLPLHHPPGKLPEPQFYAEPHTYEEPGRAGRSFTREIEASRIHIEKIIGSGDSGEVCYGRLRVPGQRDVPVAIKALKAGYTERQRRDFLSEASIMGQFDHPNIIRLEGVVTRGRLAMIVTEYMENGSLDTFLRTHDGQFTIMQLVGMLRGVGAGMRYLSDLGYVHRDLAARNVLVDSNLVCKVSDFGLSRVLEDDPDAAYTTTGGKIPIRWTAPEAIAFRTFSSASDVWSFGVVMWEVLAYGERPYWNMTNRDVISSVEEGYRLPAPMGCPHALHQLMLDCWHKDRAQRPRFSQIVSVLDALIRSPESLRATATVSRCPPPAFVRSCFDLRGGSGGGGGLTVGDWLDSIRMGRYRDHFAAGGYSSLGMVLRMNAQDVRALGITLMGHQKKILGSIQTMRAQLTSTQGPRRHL

CS(=O)(=O)CCNCc1ccc(-c2ccc3ncnc(Nc4ccc(OCc5cccc(F)c5)c(Cl)c4)c3c2)o1
residual activity (ACVRL1 (human)): 105%
residual activity (ALK (human)): 104%
residual activity (CAMK2A (human)): 98.6%
residual activity (CDC42BPB (human)): 95.7%
residual activity (CDK4 CCND1 (human)): 94.8%
residual activity (CHEK1 (human)): 100%
residual activity (CLK3 (human)): 107%
residual activity (DYRK3 (human)): 90.2%
residual activity (EPHA6 (human)): 115%
residual activity (EPHA8 (human)): 99.5%
residual activity (GSG2 (human)): 66.5%
residual activity (HCK (human)): 86.5%
residual activity (IRAK1 (human)): 98.8%
residual activity [1]: 98%
residual activity (LIMK1 (human)): 95.2%
residual activity (MAP3K11 (human)): 106%
residual activity (MAP3K8 (human)): 99.7%
residual activity (MAPK10 (human)): 100%
residual activity (MAPK13 (human)): 91.1%
residual activity (MARK1 (human)): 149%
residual activity (MERTK (human)): 95.4%
residual activity (MLTK (human)): 96.7%
residual activity (MYO3B (human)): 96.1%
residual activity (NEK9 (human)): 100%
residual activity (NLK (human)): 108%
residual activity (NUAK2 (human)): 95.1%
residual activity (OXSR1 (human)): 105%
residual activity (PDGFRA (human)): 108%
residual activity (PLK2 (human)): 103%
residual activity (PRKCH (human)): 110%
residual activity [2]: 72.4%
residual activity (ROCK1 (human)): 108%
residual activity (RPS6KA4 KD2 (human)): 93.4%
residual activity (SIK2 (human)): 101%
residual activity (SRC (human)): 102%
residual activity (STK10 (human)): 94.8%
residual activity (STK24 (human)): 106%
residual activity (TAOK2 (human)): 105%
residual activity (TGFBR2 (human)): 96.1%
residual activity (TLK2 (human)): 83.9%
residual activity (WNK3 (human)): 104%

Cc1nc(-c2ccccc2)c(-c2ccncc2)o1
residual activity (ACVRL1 (human)): 95.9%
residual activity (ALK (human)): 108%
residual activity (CAMK2A (human)): 104%
residual activity (CDC42BPB (human)): 101%
residual activity (CDK4 CCND1 (human)): 114%
residual activity (CHEK1 (human)): 106%
residual activity (CLK3 (human)): 90.6%
residual activity (DYRK3 (human)): 105%
residual activity (EPHA6 (human)): 95.9%
residual activity (EPHA8 (human)): 78.8%
residual activity (GSG2 (human)): 87.6%
residual activity (HCK (human)): 98.9%
residual activity (IRAK1 (human)): 124%
residual activity [1]: 103%
residual activity (LIMK1 (human)): 95.5%
residual activity (MAP3K11 (human)): 98.7%
residual activity (MAP3K8 (human)): 89.9%
residual activity (MAPK10 (human)): 101%
residual activity (MAPK13 (human)): 114%
residual activity (MARK1 (human)): 92.5%
residual activity (MERTK (human)): 85.6%
residual activity (MLTK (human)): 89%
residual activity (MYO3B (human)): 108%
residual activity (NEK9 (human)): 97.2%
residual activity (NLK (human)): 79.4%
residual activity (NUAK2 (human)): 128%
residual activity (OXSR1 (human)): 102%
residual activity (PDGFRA (human)): 96.3%
residual activity (PLK2 (human)): 106%
residual activity (PRKCH (human)): 88.1%
residual activity [2]: 120%
residual activity (ROCK1 (human)): 99.8%
residual activity (RPS6KA4 KD2 (human)): 93.7%
residual activity (SIK2 (human)): 86.2%
residual activity (SRC (human)): 96.2%
residual activity (STK10 (human)): 96.9%
residual activity (STK24 (human)): 96.7%
residual activity (TAOK2 (human)): 101%
residual activity (TGFBR2 (human)): 133%
residual activity (TLK2 (human)): 110%
residual activity (WNK3 (human)): 106%

Fc1ccc(-c2nc3n(c2-c2ccncc2)CCS3)cc1
residual activity (ACVRL1 (human)): 97.9%
residual activity (ALK (human)): 124%
residual activity (CAMK2A (human)): 106%
residual activity (CDC42BPB (human)): 115%
residual activity (CDK4 CCND1 (human)): 114%
residual activity (CHEK1 (human)): 95.9%
residual activity (CLK3 (human)): 94.4%
residual activity (DYRK3 (human)): 103%
residual activity (EPHA6 (human)): 94.7%
residual activity (EPHA8 (human)): 88.2%
residual activity (GSG2 (human)): 104%
residual activity (HCK (human)): 101%
residual activity (IRAK1 (human)): 125%
residual activity [1]: 106%
residual activity (LIMK1 (human)): 89.3%
residual activity (MAP3K11 (human)): 95.7%
residual activity (MAP3K8 (human)): 88.1%
residual activity (MAPK10 (human)): 116%
residual activity (MAPK13 (human)): 111%
residual activity (MARK1 (human)): 102%
residual activity (MERTK (human)): 88.7%
residual activity (MLTK (human)): 100%
residual activity (MYO3B (human)): 102%
residual activity (NEK9 (human)): 102%
residual activity (NLK (human)): 41.1%
residual activity (NUAK2 (human)): 135%
residual activity (OXSR1 (human)): 92.5%
residual activity (PDGFRA (human)): 98%
residual activity (PLK2 (human)): 103%
residual activity (PRKCH (human)): 87.4%
residual activity [2]: 123%
residual activity (ROCK1 (human)): 103%
residual activity (RPS6KA4 KD2 (human)): 88.8%
residual activity (SIK2 (human)): 108%
residual activity (SRC (human)): 98.2%
residual activity (STK10 (human)): 94.9%
residual activity (STK24 (human)): 94.2%
residual activity (TAOK2 (human)): 95.7%
residual activity (TGFBR2 (human)): 137%
residual activity (TLK2 (human)): 94.7%
residual activity (WNK3 (human)): 105%

O=C1c2ccccc2-c2nc3nnnn3nc21
residual activity (ACVRL1 (human)): 105%
residual activity (ALK (human)): 83.5%
residual activity (CAMK2A (human)): 84.7%
residual activity (CDC42BPB (human)): 82.6%
residual activity (CDK4 CCND1 (human)): 59.9%
residual activity (CHEK1 (human)): 112%
residual activity (CLK3 (human)): 81.2%
residual activity (DYRK3 (human)): 88.6%
residual activity (EPHA6 (human)): 106%
residual activity (EPHA8 (human)): 92.6%
residual activity (GSG2 (human)): 79.2%
residual activity (HCK (human)): 84%
residual activity (IRAK1 (human)): 77.6%
residual activity [1]: 101%
residual activity (LIMK1 (human)): 65%
residual activity (MAP3K11 (human)): 69%
residual activity (MAP3K8 (human)): 75.9%
residual activity (MAPK10 (human)): 55%
residual activity (MAPK13 (human)): 95.6%
residual activity (MARK1 (human)): 98.2%
residual activity (MERTK (human)): 93.1%
residual activity (MLTK (human)): 69.8%
residual activity (MYO3B (human)): 88.4%
residual activity (NEK9 (human)): 119%
residual activity (NLK (human)): 98.2%
residual activity (NUAK2 (human)): 92.5%
residual activity (OXSR1 (human)): 83%
residual activity (PDGFRA (human)): 44.1%
residual activity (PLK2 (human)): 37.3%
residual activity (PRKCH (human)): 49.2%
residual activity [2]: 83%
residual activity (ROCK1 (human)): 94.5%
residual activity (RPS6KA4 KD2 (human)): 72.2%
residual activity (SIK2 (human)): 106%
residual activity (SRC (human)): 80.4%
residual activity (STK10 (human)): 84.3%
residual activity (STK24 (human)): 101%
residual activity (TAOK2 (human)): 91.9%
residual activity (TGFBR2 (human)): 93.4%
residual activity (TLK2 (human)): 100%
residual activity (WNK3 (human)): 116%

COc1ccc(S(=O)(=O)N(CCO)c2ccccc2CN(C)C/C=C/c2ccc(Cl)cc2)cc1
residual activity (ACVRL1 (human)): 98.4%
residual activity (ALK (human)): 98.1%
residual activity (CAMK2A (human)): 107%
residual activity (CDC42BPB (human)): 101%
residual activity (CDK4 CCND1 (human)): 94.6%
residual activity (CHEK1 (human)): 93.5%
residual activity (CLK3 (human)): 100%
residual activity (DYRK3 (human)): 113%
residual activity (EPHA6 (human)): 95.3%
residual activity (EPHA8 (human)): 100%
residual activity (GSG2 (human)): 95.3%
residual activity (HCK (human)): 97.8%
residual activity (IRAK1 (human)): 98%
residual activity [1]: 111%
residual activity (LIMK1 (human)): 102%
residual activity (MAP3K11 (human)): 99.3%
residual activity (MAP3K8 (human)): 96.3%
residual activity (MAPK10 (human)): 95.5%
residual activity (MAPK13 (human)): 102%
residual activity (MARK1 (human)): 98.4%
residual activity (MERTK (human)): 97%
residual activity (MLTK (human)): 97%
residual activity (MYO3B (human)): 90.2%
residual activity (NEK9 (human)): 91.9%
residual activity (NLK (human)): 101%
residual activity (NUAK2 (human)): 113%
residual activity (OXSR1 (human)): 106%
residual activity (PDGFRA (human)): 102%
residual activity (PLK2 (human)): 102%
residual activity (PRKCH (human)): 95.9%
residual activity [2]: 110%
residual activity (ROCK1 (human)): 99.7%
residual activity (RPS6KA4 KD2 (human)): 107%
residual activity (SIK2 (human)): 97.4%
residual activity (SRC (human)): 92.7%
residual activity (STK10 (human)): 99.4%
residual activity (STK24 (human)): 101%
residual activity (TAOK2 (human)): 90.9%
residual activity (TGFBR2 (human)): 97.2%
residual activity (TLK2 (human)): 96.6%
residual activity (WNK3 (human)): 99.4%
